Measured values as given in patent US7884074B2, “Compounds and methods for prevention and/or treatment of inflammation using the same” (Ikaria Development Subsidiary Two, LLC, priority 2008, dated 2011).

Test system: RhoA
Experiment: thrombin induced RhoA activation in HUVEC culture (active RhoA pull-down, Western blot)
Format: cell-based, human
Settings: 5 U/ml thrombin alone, 5 min
Description: The biological effect of the compounds was established in a model using thrombin induced RhoA activation in human umbilical vein endothelial cell (HUVEC) culture.
HUVEC are grown to confluence under standard conditions. Before induction of Rho activity HUVEC were starved for 4 h by using IMDM (Gibco) without growth factor and serum supplements. After the starvation period, 5 U/ml Thrombin (Calbiochem) or 5 U thrombin plus 50 μg/ml of test compound was added to the starvation medium for 1, 5 and 10 min. Active RhoA was isolated using Rho Assay Reagent from Upstate according to manufactures instructions. Isolates were separated on a 15% polyacrylamide gel and blotted on Nitrocellulose-Membrane (Bio-Rad). RhoA was detected by using Anti-Rho (-A, -B, -C), clone55 from Upstate (1:500).

thrombin
Relative RhoA stimulation compared to unstimulated control: 5.6
